Consider 24 molecules from patent US20060276464A1, “Diarylsulfone sulfonamides and use thereof” (Wyeth, priority 2005, published 2006).

Values joined by “and” are separate entries in the source; they are usually repeats but may differ in a detail not shown here. Identical values can stand only once. Like-named read-outs stand apart in the source and are kept apart here.

The target in test [1] is T1, SFRP-1 (Homo sapiens, UniProt Q8N474).
T1 sequence (Q8N474 32-314): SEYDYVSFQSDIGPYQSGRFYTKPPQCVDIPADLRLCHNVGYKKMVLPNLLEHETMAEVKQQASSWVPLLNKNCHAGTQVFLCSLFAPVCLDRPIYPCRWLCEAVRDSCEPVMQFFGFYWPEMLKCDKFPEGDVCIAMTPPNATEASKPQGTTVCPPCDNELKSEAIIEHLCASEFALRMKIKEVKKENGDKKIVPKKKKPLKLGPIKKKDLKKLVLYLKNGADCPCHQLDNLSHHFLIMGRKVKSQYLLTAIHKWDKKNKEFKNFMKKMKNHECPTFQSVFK
The test is described as follows: Fluorescence polarization binding assay (competitive displacement of a probe compound from SFRP-1).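 Further: test compound competes with a fluorescent probe held by SFRP-1, seen as a drop in probe anisotropy after incubation in darkness, with anisotropy as function of rising compound dose.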 As to conditions: fluorescence anisotropy, 45 nM SFRP-1, 20 nM probe. Background: In fluorescence polarisation assays a small probe gives low polarisation when free and higher when bound to something large.

For test [2], the target named is T1, SFRP-1. Description: Cell-based assay for in vitro measurement of SFRP-1/SARP2 antagonist activity (U2OS cells co-transfected with 16x TCF-tk-Luciferase reporter, Wnt and hSFRP-1).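 Further: U2OS cells co-transfected with a TCF-tk luciferase reporter, a Wnt vector, hSFRP-1 or empty vector and CMV-βgal, luciferase luminescence read in cell lysates alongside βgal activity.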 As to conditions: U2OS, single dose, luciferase reporter. For orientation: In a reporter assay the amount or activity of a reporter protein is the signal.
Setting [3] is: read-out: Fold Induction with SFRP-1, Conc 15 μM, fold induction over SFRP-1 control, cells with SFRP-1.
[4] abbreviates: read-out: Fold Induction without SFRP-1, Conc 15 μM, cells without SFRP-1 (specificity control).

In general, IC50 refers to the midpoint of a concentration-inhibition curve. Higher therefore signals a need for much substance. `CC(C)c1ccc(S(=O)(=O)c2ccc(N(C)C)cc2)cc1S(=O)(=O)NCCc1ccccn1` [Example 507, 5-{[4-(dimethylamino)phenyl]sulfonyl}-2-isopropyl-N-(2-pyridin-2-ylethyl)benzenesulfonamide]: in test [1], the IC50 amounted to 500 nM. Moreover, the fold induction at 15 µM came to 2.7 in test [2] (setting [3]) and 0.9 in test [2] (setting [4]).
In the same order, the values of `CC(C)c1ccc(S(=O)(=O)c2cccc(C(F)(F)F)c2)cc1S(=O)(=O)NCCc1ccccn1` [Example 508, 2-isopropyl-N-(2-pyridin-2-ylethyl)-5-{[3-(trifluoromethyl)phenyl]sulfonyl}benzenesulfonamide] are 1300 nM, 2.3 and 0.9.
As to `COc1ccc(Cl)cc1S(=O)(=O)c1ccc(C(C)C)c(S(=O)(=O)NCCc2ccccn2)c1` [Example 509, 5-[(5-chloro-2-methoxyphenyl)sulfonyl]-2-isopropyl-N-(2-pyridin-2-ylethyl)benzenesulfonamide], the IC50 in test [1] is 1200 nM. The fold induction at 15 µM in test [2] (setting [3]) stood at 1.9; in test [2] (setting [4]) it was 1.
Molecule `CC(C)c1ccc(S(=O)(=O)c2cccc3cccnc23)cc1S(=O)(=O)NCCc1ccccn1` [Example 510, 2-isopropyl-N-(2-pyridin-2-ylethyl)-5-(quinolin-8-ylsulfonyl)benzenesulfonamide] displayed an IC50 in test [1] of 900 nM. Also, the fold induction at 15 µM in test [2] (setting [3]) was found to be 1.9; in test [2] (setting [4]), 1.1.
In the case of `CC(C)c1ccc(S(=O)(=O)c2cc(Cl)sc2Cl)cc1S(=O)(=O)NCCc1ccccn1` [Example 511, 5-[(2,5-dichloro-3-thienyl)sulfonyl]-2-isopropyl-N-(2-pyridin-2-ylethyl)benzenesulfonamide], the IC50 in test [1] is 1800 nM and 2300 nM. The fold induction at 15 µM in test [2] (setting [3]) came out at 2.8; in test [2] (setting [4]) it was 0.9.
`Cc1nn(C)c(Cl)c1S(=O)(=O)c1ccc(C(C)C)c(S(=O)(=O)NCCc2ccccn2)c1` [Example 512, 5-[(5-chloro-1,3-dimethyl-1H-pyrazol-4-yl)sulfonyl]-2-isopropyl-N-(2-pyridin-2-ylethyl)benzenesulfonamide] returned an IC50 in test [1] of 1000 nM. For the same molecule, the fold induction at 15 µM worked out at 3.1 in test [2] (setting [3]) and 1.1 in test [2] (setting [4]).
In the same order, the values of `CC(C)c1ccc(S(=O)(=O)c2cn(C)cn2)cc1S(=O)(=O)NCCc1ccccn1` [Example 513, 2-isopropyl-5-[(1-methyl-1H-imidazol-4-yl)sulfonyl]-N-(2-pyridin-2-ylethyl)benzenesulfonamide] are 6000 nM, 2.2 and 1.2.
`Cc1c(Cl)cccc1S(=O)(=O)c1ccc(C(C)C)c(S(=O)(=O)NCCc2ccccn2)c1` [Example 514, 5-[(3-chloro-2-methylphenyl)sulfonyl]-2-isopropyl-N-(2-pyridin-2-ylethyl)benzenesulfonamide] registered an IC50 in test [1] of 700 nM. Moreover, the fold induction at 15 µM in test [2] (setting [3]) is 2.6; in test [2] (setting [4]), 1.
Turning to `Cc1ccc(S(=O)(=O)c2ccccc2)cc1S(=O)(=O)NC1CCN(C(=O)c2cccnc2)CC1` [Example 516, 2-methyl-5-(phenylsulfonyl)-N-[1-(pyridin-3-ylcarbonyl)piperidin-4-yl]benzenesulfonamide], in test [1], the IC50 is 2600 nM. Also, the fold induction at 15 µM in test [2] (setting [3]) was 3; in test [2] (setting [4]), 1.
For `CC(C)c1ccc(S(=O)(=O)c2ccc(F)cc2)cc1S(=O)(=O)NC1CCN(C(=O)OC(C)(C)C)CC1` [Example 517, tert-butyl 4-[({5-[(4-fluorophenyl)sulfonyl]-2-isopropylphenyl}sulfonyl)amino]piperidine-1-carboxylate] the same measures were 1600 nM, 2.2 and 1.
`CC(C)c1ccc(S(=O)(=O)c2ccc(F)cc2)cc1S(=O)(=O)NC1CCN(S(=O)(=O)c2cccc3c(N(C)C)cccc23)CC1` [Example 518, N-(1-{[5-(dimethylamino)-1-naphthyl]sulfonyl}piperidin-4-yl)-5-[(4-fluorophenyl)sulfonyl]-2-isopropylbenzenesulfonamide]: in test [1], the IC50 was found to be 500 nM. In addition, the fold induction at 15 µM stood at 3 in test [2] (setting [3]) and 1.2 in test [2] (setting [4]).
In the same order, the values of `COCC(=O)N1CCC(NS(=O)(=O)c2cc(S(=O)(=O)c3ccc(F)cc3)ccc2C(C)C)CC1` [Example 519, 5-[(4-fluorophenyl)sulfonyl]-2-isopropyl-N-[1-(methoxyacetyl)piperidin-4-yl]benzenesulfonamide] are 800 nM, 3 and 0.9.
In the same order, the values of `CC(C)c1ccc(S(=O)(=O)c2ccc(F)cc2)cc1S(=O)(=O)NC1CCNCC1` [Example 520, 5-[(4-fluorophenyl)sulfonyl]-2-isopropyl-N-piperidin-4-ylbenzenesulfonamide] are 2400 nM, 3.3 and 1.1.
`CC(C)c1ccc(S(=O)(=O)c2ccc(F)cc2)cc1S(=O)(=O)NC1CCCC1` [Example 523, N-cyclopentyl-5-[(4-fluorophenyl)sulfonyl]-2-isopropylbenzenesulfonamide] came in with a concentration for half-maximal inhibition (IC50) in test [1] of 3000 nM. Besides, the figures for the fold induction at 15 µM in test [2] (setting [3]) and in test [2] (setting [4]) were 2.1 and 1, respectively.
In turn, `CC(C)c1ccc(S(=O)(=O)c2ccc(F)cc2)cc1S(=O)(=O)NC1CCN(Cc2ccccc2)CC1` [Example 525, N-(1-benzylpiperidin-4-yl)-5-[(4-fluorophenyl)sulfonyl]-2-isopropylbenzenesulfonamide] displayed an IC50 in test [1] of 1000 nM. Also, the fold induction at 15 µM came out at 2.1 in test [2] (setting [3]) and 1.1 in test [2] (setting [4]).
On to `CCOC(=O)N1CCC(NS(=O)(=O)c2cc(S(=O)(=O)c3ccc(F)cc3)ccc2C(C)C)CC1` [Example 526, ethyl 4-[({5-[(4-fluorophenyl)sulfonyl]-2-isopropylphenyl}sulfonyl)amino]piperidine-1-carboxylate], for which, in test [1], the half-maximal inhibitory concentration (IC50) came out at 500 nM. The results for the fold induction at 15 µM in test [2] (setting [3]) and in test [2] (setting [4]) were 2.1 and 1.1, respectively.
Turning to `CNc1ccc(S(=O)(=O)c2ccc(C(C)C)c(S(=O)(=O)NC3CCN(C(=O)OC(C)(C)C)CC3)c2)cc1` [Example 528, tert-butyl 4-{[(2-isopropyl-5-{[4-(methylamino)phenyl]sulfonyl}phenyl)sulfonyl]amino}piperidine-1-carboxylate], the IC50 in test [1] was 300 nM. Further, the fold induction at 15 µM in test [2] (setting [3]) stood at 2.5; in test [2] (setting [4]), 1.1.
In turn, `CC(=O)N1CCC(NS(=O)(=O)c2cc(S(=O)(=O)c3ccc(F)cc3)ccc2C(C)C)CC1` [Example 529, N-(1-acetylpiperidin-4-yl)-5-[(4-fluorophenyl)sulfonyl]-2-isopropylbenzenesulfonamide] gave an IC50 in test [1] of 500 nM. Moreover, the fold induction at 15 µM in test [2] (setting [3]) turned out to be 2.8; in test [2] (setting [4]) it was 1.
Turning to `CC(C)c1ccc(S(=O)(=O)c2ccc(F)cc2)cc1S(=O)(=O)NC1CCN(C(=O)C2CC2)CC1` [Example 530, N-[1-(cyclopropylcarbonyl)piperidin-4-yl]-5-[(4-fluorophenyl)sulfonyl]-2-isopropylbenzenesulfonamide], the IC50 in test [1] came out at 700 nM. For the same molecule, the fold induction at 15 µM in test [2] (setting [3]) worked out at 3; in test [2] (setting [4]), 1.
Consider `CC(C)c1ccc(S(=O)(=O)c2ccc(F)cc2)cc1S(=O)(=O)NC1CCN(C(=O)c2ccc(C#N)cc2)CC1` [Example 531, N-[1-(4-cyanobenzoyl)piperidin-4-yl]-5-[(4-fluorophenyl)sulfonyl]-2-isopropylbenzenesulfonamide], for which the IC50 in test [1] turned out to be 400 nM. Also, the fold induction at 15 µM turned out to be 2.5 in test [2] (setting [3]) and 1.1 in test [2] (setting [4]).
Regarding `CC(C)c1ccc(S(=O)(=O)c2ccc(F)cc2)cc1S(=O)(=O)NCC1CCCO1` (stereo not drawn) [Example 532, 5-[(4-fluorophenyl)sulfonyl]-2-isopropyl-N-(tetrahydrofuran-2-ylmethyl)benzenesulfonamide], the IC50 in test [1] was determined as 4000 nM. In addition, the fold induction at 15 µM amounted to 2.8 in test [2] (setting [3]) and 1.1 in test [2] (setting [4]).
For `CC(C)c1ccc(S(=O)(=O)c2ccc(F)cc2)cc1S(=O)(=O)NCCc1ccncc1` [Example 533, 5-[(4-fluorophenyl)sulfonyl]-2-isopropyl-N-(2-pyridin-4-ylethyl)benzenesulfonamide] the same measures were 500 nM, 3.7 and 1.1.
With `CC(C)c1ccc(S(=O)(=O)c2ccc(F)cc2)cc1S(=O)(=O)NCCc1cccnc1` [Example 534, 5-[(4-fluorophenyl)sulfonyl]-2-isopropyl-N-(2-pyridin-3-ylethyl)benzenesulfonamide], in test [1], the concentration for half-maximal inhibition (IC50) was 200 nM and 300 nM. Further, the fold induction at 15 µM was found to be 4 in test [2] (setting [3]) and 1.1 in test [2] (setting [4]).
As for `CC(C)c1ccc(S(=O)(=O)c2ccc(NCCC#N)cc2)cc1S(=O)(=O)NC1CCOCC1` [Example 535, 5-({4-[(2-cyanoethyl)amino]phenyl}sulfonyl)-2-isopropyl-N-(tetrahydro-2H-pyran-4-yl)benzenesulfonamide], the IC50 in test [1] came out at 400 nM. Moreover, the fold induction at 15 µM in test [2] (setting [3]) came to 3.8; in test [2] (setting [4]), 1.2.
